The values that follow come from patent US10301272B2, “Carboxamide or sulfonamide substituted thiazoles and related derivatives as modulators for the orphan nuclear receptor ROR[γ]” (Phenex Pharmaceuticals AG, priority 2012, dated 2019).

The experiment addresses RORγ (Homo sapiens, UniProt P51449). Nature of the experiment: RORγ Gal4 Reporter Gene Assay. The format is cell-based. As for the experimental part: Determination of a ligand mediated Gal4 promoter driven transactivation to quantify ligand binding to RORγ was performed as follows: DNA encoding three different RORγ protein fragments was cloned into vector pCMV-BD (Stratagene). Expression was under control of a CMV promoter and as fusion to the DNA-binding domain of the yeast protein GAL4. Other vectors used were pFR-Luc (Stratagene) as regulated reporter plasmid. pFR-Luc contains a synthetic promoter with five tandem repeats of the yeast GAL4 binding sites that control expression of the Photinus pyralis (American firefly) luciferase gene. In order to improve experimental accuracy the plasmid pRL-CMV was cotransfected. pRL-CMV contains the constitutive CMV promoter, controlling the expression of the Renilla reniformis luciferase.
The medium is supplemented with 10% fetal bovine serum, 0.1 mM nonessential amino acids, 1 mM sodium pyruvate, 1% Glutamax and 100 units Penicilin/[…] per mL at 37° C. in 5% CO2.
For the assay, […] were plated per well in 96 well plates in 100 μL per well, incubated over night at 37° C. in 5% CO2. […] About 4 h after addition of the transfection solution, fresh Minimal Essential Medium (MEM, same composition as used for plating cells, but without serum) was added. Then compound stocks, prediluted in MEM (same composition as used for plating cells) were added (final vehicle concentration not exceeding 0.1%).
All experiments were done at least in triplicates.

The mark [1] stands for this setting: firefly (FF) luciferase, 293T cells, read-out: pIC50 (FF) (converted).
[2] abbreviates: renilla normalised (RENnorm) luciferase, 293T cells, read-out: pIC50 (REN) (converted).
[3] abbreviates: firefly (FF) luciferase, 293T cells.
Setting [4] is: renilla normalised (RENnorm) luciferase, 293T cells.

Where two headings read alike, the source gives them in different places.

Sequence of RORγ (P51449 whole entry, looked up, the tested form may be a part): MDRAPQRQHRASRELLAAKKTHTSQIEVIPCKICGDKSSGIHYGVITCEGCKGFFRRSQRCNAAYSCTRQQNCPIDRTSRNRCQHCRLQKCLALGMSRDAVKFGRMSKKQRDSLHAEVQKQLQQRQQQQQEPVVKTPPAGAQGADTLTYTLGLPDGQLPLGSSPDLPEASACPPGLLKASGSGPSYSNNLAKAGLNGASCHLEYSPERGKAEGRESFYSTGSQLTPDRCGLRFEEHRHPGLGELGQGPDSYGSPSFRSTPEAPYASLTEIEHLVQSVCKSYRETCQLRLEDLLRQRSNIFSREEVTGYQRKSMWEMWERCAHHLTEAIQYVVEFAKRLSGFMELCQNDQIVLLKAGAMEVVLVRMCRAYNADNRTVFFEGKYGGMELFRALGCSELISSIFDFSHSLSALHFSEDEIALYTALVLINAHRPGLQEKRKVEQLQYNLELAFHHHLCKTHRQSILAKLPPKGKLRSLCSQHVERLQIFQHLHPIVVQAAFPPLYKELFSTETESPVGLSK

Regarding `CC(C)(C)NS(=O)(=O)c1ccc(-c2sc(C(=O)N[C@H]3C[C@H](C(=O)O)C3)cc2CC2CCCCC2)c2ccccc12` [Example 307, trans-3-(5-(4-(N-(tert-Butyl)sulfamoyl)naphthalen-1-yl)-4-(cyclohexylmethyl)thiophene-2-carboxamido)cyclobutanecarboxylic acid], the “pIC50 (FF)” value was “nt/8.2/8.3” and the “pIC50 (REN)” value was “nt/8.2/8.3”.
Turning to `CC(C)(C)NS(=O)(=O)c1ccc(-c2sc(C(=O)N3CCC(C(C)(C)C(=O)O)C3)nc2CC2CCCCC2)c2ccccc12` (stereo not drawn) [6/50], the “pIC50 (FF)” value was “nt/7.6/7.7” and the “pIC50 (REN)” value was “nt/7.6/7.7”.
Take `CC(C)(O)CNC(=O)c1nc(CC2CCC(F)(F)CC2)c(-c2ccc(S(=O)(=O)NC(C)(C)C)c3ccccc23)s1` [21/11]: the “pIC50 (FF)” value was “nt/8.0/8.2” and the “pIC50 (REN)” value is “nt/8.0/8.2”.
For `CCCc1nc(C(=O)NC2CCS(=O)(=O)CC2)sc1-c1ccc(S(=O)(=O)NC(C)(C)C)c2ccccc12` [300/7], the “pIC50 (FF)” value is reported as “nt/7.7/7.9” and the “pIC50 (REN)” value was “nt/7.7/7.9”.
For `CC(C)(C)NS(=O)(=O)c1ccc(-c2nc(C(=O)N[C@H]3C[C@H](C(=O)O)C3)sc2CC2CCCCC2)c2ccccc12` [Example 25/1], the “pIC50 (FF)” value is on record as “nt/8.9/8.8” and the “pIC50 (REN)” value is “nt/8.9/8.8”.
For `CC(C)(C)NS(=O)(=O)c1ccc(-c2sc(C(=O)NC3CCS(=O)(=O)CC3)nc2-c2cccc(Cl)c2)c2ccccc12` [300/14], the “pIC50 (FF)” value was “nt/8.2/8.2” and the “pIC50 (REN)” value is on record as “nt/8.2/8.2”.
In the case of `CCC(C)(C)NS(=O)(=O)c1ccc(-c2sc(C(=O)NCc3ncc(S(C)(=O)=O)s3)nc2C(=O)N2CCC(C)CC2)c(Cl)c1C` [Example 303, 5-(2-Chloro-3-methyl-4-(N-(tert-pentyl)sulfamoyl)phenyl)-4-(4-methylpiperidine-1-carbonyl)-N-((5-(methylsulfonyl)thiazol-2-yl)methyl)thiazole-2-carboxamide], the “pIC50 (FF)” value is recorded as “nt/7.7/7.7” and the “pIC50 (REN)” value was “nt/7.7/7.7”.
As to `CC(C)(C)NS(=O)(=O)c1ccc(-c2sc(C(=O)N3CC(S(C)(=O)=O)C3)nc2CC2CCCCC2)c2ccccc12` [6/57], the “pIC50 (FF)” value is “nt/7.9/8.2” and the “pIC50 (REN)” value is listed as “nt/7.9/8.2”.
With `CC(C)(C)c1cc(-c2nc(C(=O)NC3CCS(=O)(=O)CC3)oc2CC2CCCCC2)cc(C2(C)CC2)c1` [103/3], the “pIC50 (FF)” value is listed as “nt/6.6/6.6” and the “pIC50 (REN)” value is reported as “nt/6.6/6.6”.
For the compound `CCC(C)(C)NS(=O)(=O)c1ccc(-c2sc(C(=O)NCC(C)(C)O)nc2CC2CCC2)c(OC(F)(F)F)c1` [21/25], the “pIC50 (FF)” value is reported as “nt/7.7/7.8” and the “pIC50 (REN)” value is given as “nt/7.7/7.8”.
Take `CC1CCN(C(=O)c2nc(C(=O)NCC(C)(C)O)sc2-c2ccc(S(=O)(=O)N3CCCCC3(C)C)c3ccccc23)CC1` [304/25]: the “pIC50 (FF)” value is reported as “nt/8.0/7.6” and the “pIC50 (REN)” value was “nt/8.0/7.6”.
In the case of `CC(C)(C)NS(=O)(=O)c1ccc(-c2oc(C(=O)NC3CCS(=O)(=O)CC3)nc2CC2CCCCC2)c2ccncc12` [100/28], the “pIC50 (FF)” value is recorded as “nt/7.1/7.2” and the “pIC50 (REN)” value is recorded as “nt/7.1/7.2”.
For the compound `CC(C)(C)NS(=O)(=O)c1ccc(-c2sc(C(=O)N[C@H]3C[C@H](C(=O)O)C3)nc2CC2CCCCC2)c(OC(F)(F)F)c1` [21/7], the IC50 reads like this: under setting [1], 10 nM; under setting [2], 6.31 nM.
For the compound `CC1CCN(C(=O)c2nc(C(=O)NC3CC34CCOCC4)sc2-c2ccc(S(=O)(=O)NC(C)(C)C)c3ccccc23)CC1` (stereo not drawn) [304/18], the “pIC50 (FF)” value was “nt/7.5/7.7” and the “pIC50 (REN)” value is recorded as “nt/7.5/7.7”.
Take `CC(C)(C)NS(=O)(=O)c1ccc(-c2sc(C(=O)N3CCC(S(C)(=O)=O)CC3)nc2CC2CCCCC2)c2ccccc12` [6/56]: the “pIC50 (FF)” value is reported as “nt/8.1/8.2” and the “pIC50 (REN)” value is “nt/8.1/8.2”.
For `CCC1CCN(C(=O)c2nc(C(=O)NCC(C)(C)O)sc2-c2ccc(S(=O)(=O)NC(C)(C)C)c3ccccc23)CC1` [304/10], the “pIC50 (FF)” value is listed as “nt/7.5/7.5” and the “pIC50 (REN)” value is “nt/7.5/7.5”.
Consider `CCC(C)(C)NS(=O)(=O)c1ccc(-c2sc(C(=O)NC3CCS(=O)(=O)CC3)nc2C(=O)N2CCC(C)CC2)c2ccccc12` [304/14], for which the “pIC50 (FF)” value is on record as “nt/7.5/7.6” and the “pIC50 (REN)” value is recorded as “nt/7.5/7.6”.
Turning to `CC1CCN(C(=O)c2nc(C(=O)NCC(C)(C)O)sc2-c2ccc(S(=O)(=O)NC3CCOC3)c3ccccc23)CC1` (stereo not drawn) [304/24], the “pIC50 (FF)” value was “nt/6.6/6.7” and the “pIC50 (REN)” value is “nt/6.6/6.7”.
Take `CCC(C)(C)NS(=O)(=O)c1ccc(-c2sc(C(=O)NC3CCOCC3)nc2C(=O)N2CCC(C)CC2)c2ccccc12` [304/15]: the “pIC50 (FF)” value is given as “nt/7.6/7.7” and the “pIC50 (REN)” value is recorded as “nt/7.6/7.7”.
With `CC(C)(C)NS(=O)(=O)c1ccc(-c2sc(C(=O)NC3CCS(=O)(=O)CC3)cc2CC2CCCCC2)c2ccccc12` [Example 307/1], the “pIC50 (FF)” value was “nt/8.4/8.5” and the “pIC50 (REN)” value is on record as “nt/8.4/8.5”.
Take `C[C@H](NS(=O)(=O)c1ccc(-c2sc(C(=O)NCC(C)(C)O)nc2CC2CCC2)c(OC(F)F)c1)C(F)(F)F` [21/21]: the “pIC50 (FF)” value was “nt/7.7/7.8” and the “pIC50 (REN)” value is on record as “nt/7.7/7.8”.
As to `CC(C)(C)c1cc(-c2nc(C(=O)N[C@H]3C[C@H](C(=O)O)C3)sc2CC2CCCCC2)cc(C2(C)CC2)c1` [Example 25, trans-3-(4-(3-(tert-Butyl)-5-(1-methylcyclopropyl)phenyl)-5-(cyclohexylmethyl)thiazole-2-carboxamido)cyclobutanecarboxylic acid], the “pIC50 (FF)” value under setting [3] is listed as “nt/6.1/6.1”. Besides, under setting [4], the “pIC50 (REN)” value is “nt/6.1/6.1”.
Consider `CCC(C)(C)NS(=O)(=O)c1ccc(-c2sc(C(=O)NCC(C)(C)O)nc2C(=O)N2CCC(C)CC2)c(Cl)c1C` [Example 301/1], for which the “pIC50 (FF)” value is recorded as “nt/8.5/8.5” and the “pIC50 (REN)” value is on record as “nt/8.5/8.5”.
Consider `CC(C)(C)NS(=O)(=O)c1ccc(-c2sc(C(=O)N[C@H]3C[C@H](C(=O)O)C3)nc2Cc2ccccc2)c2ccccc12` [300/18], for which the IC50 under setting [1] is 31.6 nM and the IC50 under setting [2] was 25.1 nM.
Regarding `CCN(C(C)(C)C)S(=O)(=O)c1ccc(-c2sc(C(=O)NCC(C)(C)O)nc2C(=O)N2CCC(C)CC2)c2ccccc12` [304/20], the “pIC50 (FF)” value was “nt/7.4/7.7” and the “pIC50 (REN)” value is “nt/7.4/7.7”.
As for `CC(C)(O)CNC(=O)c1nc(C(F)F)c(-c2ccc(S(=O)(=O)NC(C)(C)C)c3ccccc23)s1` [Example 305, 5-(4-(N-(tert-butyl)sulfamoyl)naphthalen-1-yl)-4-(difluoromethyl)-N-(2-hydroxy-2-methylpropyl)thiazole-2-carboxamide], the “pIC50 (FF)” value is on record as “nt/6.6/7.2” and the “pIC50 (REN)” value is reported as “nt/6.6/7.2”.
On to `CC1CCN(C(=O)c2nc(C(=O)NCC(C)(C)O)sc2-c2ccc(S(=O)(=O)N(CC(F)(F)F)C(C)(C)C)c3ccccc23)CC1` [304/23], for which the “pIC50 (FF)” value is “nt/7.5/7.7” and the “pIC50 (REN)” value is given as “nt/7.5/7.7”.
For the compound `C[C@H](NS(=O)(=O)c1ccc(-c2sc(C(=O)NCC(C)(C)O)nc2CC2CCC2)c(Cl)c1)C(F)(F)F` [21/19], the “pIC50 (FF)” value was “nt/7.9/7.9” and the “pIC50 (REN)” value is listed as “nt/7.9/7.9”.
In the case of `CC(C)(C)NS(=O)(=O)c1ccc(-c2sc(C(=O)NC3CCS(=O)(=O)CC3)nc2CC2CCC2)c2ccccc12` [21/16], the “pIC50 (FF)” value is recorded as “nt/8.4/8.4” and the “pIC50 (REN)” value is given as “nt/8.4/8.4”.
Turning to `CC(C)(O)CNC(=O)c1nc(CC2CCC2)c(-c2ccc(S(=O)(=O)NC(C)(C)C)cc2OC(F)(F)F)s1` [21/24], the “pIC50 (FF)” value is recorded as “nt/7.5/7.6” and the “pIC50 (REN)” value was “nt/7.5/7.6”.
Turning to `CC(C)(C)NS(=O)(=O)c1ccc(-c2sc(C(=O)N[C@H]3C[C@H](C(=O)O)C3)nc2C2CCCCC2)c2ccccc12` [300/17], the “pIC50 (FF)” value is reported as “nt/8.0/8.0” and the “pIC50 (REN)” value is “nt/8.0/8.0”.
Regarding `CC(C)(C)NS(=O)(=O)c1ccc(-c2sc(C(=O)N[C@H]3C[C@H](C(=O)O)C3)nc2CC2CCCCC2)c2ccccc12` [7/9], under setting [3], the “pIC50 (FF)” value is reported as 8.7. For the same compound, under setting [4], the “pIC50 (REN)” value is recorded as 9.0.
On to `CC(C)(C)NS(=O)(=O)c1cc(Cl)c(-c2sc(C(=O)N[C@H]3C[C@H](C(=O)O)C3)nc2CC2CCCCC2)cc1Cl` [19/11], for which the “pIC50 (FF)” value is reported as “nt/7.6/7.7” and the “pIC50 (REN)” value is reported as “nt/7.6/7.7”.
For `CCC(C)(C)NS(=O)(=O)c1ccc(-c2sc(C(=O)N3CC4(C3)CS(=O)(=O)C4)nc2C(=O)N2CCC(C)CC2)c(Cl)c1C` [301/2], the “pIC50 (FF)” value was “nt/7.7/7.8” and the “pIC50 (REN)” value is “nt/7.7/7.8”.
For `CC1CCN(C(=O)c2nc(C(=O)N3CC4(CCS(=O)(=O)CC4)C3)oc2-c2ccc(S(=O)(=O)NC(C)(C)C)c3ccccc23)CC1` [Example 306, N-(tert-Butyl)-4-(2-(7,7-dioxido-7-thia-2-azaspiro[3.5]nonane-2-carbonyl)-4-(4-methyl-piperidine-1-carbonyl)oxazol-5-yl)naphthalene-1-sulfonamide], the “pIC50 (FF)” value is recorded as “nt/5.6/5.6” and the “pIC50 (REN)” value is given as “nt/5.6/5.6”.
Consider `CC(C)(C)c1cc(-c2nc(C(=O)N[C@H]3C[C@H](C(=O)O)C3)oc2CC2CCCCC2)cc(C2(C)CC2)c1` [103/2], for which the IC50 under setting [1] was 398 nM and the IC50 under setting [2] is 251 nM.
